In patent publication US11673866B2, “Estrogen receptor beta ligands for the prevention and treatment of multiple sclerosis (MS) and other demyelinating, inflammatory and neurodegenerative diseases” (The Board of Trustees of the University of Illinois, priority 2018, dated 2023):
Entries after “also recorded” stand apart in the source; their conditions may differ.

Tests used:
ERα = biological target: T1, ERα (Homo sapiens, UniProt P03372); test: Relative binding affinity (RBA) to estrogen receptor alpha, radiometric measurement; details: relative value to 100% for E2 by radiometric measurement
T1 sequence (P03372 1-595): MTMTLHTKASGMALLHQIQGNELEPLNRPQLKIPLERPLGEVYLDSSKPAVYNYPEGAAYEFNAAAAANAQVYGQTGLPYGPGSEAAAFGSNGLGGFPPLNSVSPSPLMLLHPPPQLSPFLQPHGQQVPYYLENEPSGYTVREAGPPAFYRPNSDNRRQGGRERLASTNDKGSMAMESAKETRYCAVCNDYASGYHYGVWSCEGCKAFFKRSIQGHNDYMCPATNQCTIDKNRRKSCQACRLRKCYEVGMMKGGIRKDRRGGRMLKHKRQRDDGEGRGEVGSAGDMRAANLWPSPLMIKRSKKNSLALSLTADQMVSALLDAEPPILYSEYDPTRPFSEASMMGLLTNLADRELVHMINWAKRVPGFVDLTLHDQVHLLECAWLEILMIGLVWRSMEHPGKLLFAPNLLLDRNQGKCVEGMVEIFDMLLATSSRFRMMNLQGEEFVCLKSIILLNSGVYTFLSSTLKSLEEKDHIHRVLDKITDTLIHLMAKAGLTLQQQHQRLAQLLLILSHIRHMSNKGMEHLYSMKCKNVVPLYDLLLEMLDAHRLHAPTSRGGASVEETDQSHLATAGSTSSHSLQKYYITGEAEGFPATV

ERβ = ERβ (Homo sapiens, UniProt Q92731); test: Relative binding affinity (RBA) to estrogen receptor beta, radiometric measurement; details: for β/α Ratio: ratio of RBA ERβ to RBA ERα; for RBA ERβ: relative value to 100% for E2 by radiometric measurement
Sequence of ERβ (Q92731 whole entry, species assumed): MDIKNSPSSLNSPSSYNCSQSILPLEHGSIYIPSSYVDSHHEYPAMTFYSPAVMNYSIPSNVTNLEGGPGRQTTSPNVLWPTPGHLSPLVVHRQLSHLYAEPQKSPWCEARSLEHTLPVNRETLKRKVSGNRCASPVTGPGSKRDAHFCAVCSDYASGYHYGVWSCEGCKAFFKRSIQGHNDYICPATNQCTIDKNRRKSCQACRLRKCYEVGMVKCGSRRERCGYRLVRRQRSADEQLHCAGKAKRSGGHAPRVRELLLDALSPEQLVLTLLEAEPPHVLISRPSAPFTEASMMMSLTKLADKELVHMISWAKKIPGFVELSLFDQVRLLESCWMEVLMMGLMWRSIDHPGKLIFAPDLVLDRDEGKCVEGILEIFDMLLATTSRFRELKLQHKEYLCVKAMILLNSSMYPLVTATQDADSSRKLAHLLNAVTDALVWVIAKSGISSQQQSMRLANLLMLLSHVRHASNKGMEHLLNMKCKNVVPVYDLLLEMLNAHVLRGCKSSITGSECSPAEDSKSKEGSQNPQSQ

[1] = test system: primary oligodendrocyte and oligodendrocyte precursor cells (OL/OPCs); test: Primary OPC culture differentiation (MBP immunostaining, DAPI); format: cell-based, mouse; design: key to %MBP+/DAPI: *: The level of production of myelin basic protein (MBP); ---: reduction of MBP; details: for %MBP+/DAPI: level of production of myelin basic protein in primary OPC/OL cultures
Procedure: Primary OPC Cultures: Primary OPCs, isolated from postnatal day P1 C57BL/6 male and female mouse cortices as described previously, were treated with 10 nM ligands in differentiating medium for 3 days (Tiwari-Woodruff et al., 2001; Tiwari-Woodruff et al., 2006). Primary OPC were cultured into 8-well chamber slides (three wells per condition, 2.5×10^5 cells/well) for three days to attach and […] in differentiating media (consisting of DMEM-F12 with triiodothyronine- and thyroxine-containing Sato as well as penicillin, streptomycin, insulin, N-acetyl-L-cysteine, forskolin, ciliary neurotrophic factor, neurotrophin-3, and platelet-derived growth factor receptor α (Tiwari-Woodruff et al., 2001)). A positive control (IndCl), a negative control (Vehicle consisting of the media+EtOH mixture used to dissolve IndCl), and a normal control (differentiating media alone) were used for comparison. At the end of the treatment period, cells were fixed, stained by immunocytochemistry (primary antibody polyclonal chicken myelin basic protein (MBP, Millipore AB9348), shown in green and co-stained with nuclear stain—DAPI shown in blue), and imaged with an Olympus BX61 confocal microscope (Olympus America Inc., Center Valley, Pa.) at 10× magnification (3 images per well). Cells were counted using the ImageJ multipoint tool, and counts were then divided by the image area (mm^2). Average cell density for each condition was then divided by the normal condition cell density. Analysis of OL differentiation consisted of counting the number of MBP+ cells and process extensions that were longer than the respective cell-body diameter and tracking the number of highly branched MBP+ cells (with three or more processes) (Monnerie et al., 2017). Statistics were performed using GraphPad Prism 6 Software (La Jolla, Calif.). One-way ANOVA with Tukey's posthoc test for multiple comparisons was used to generate p-values, and data are presented as mean SEM (with α≤0.05).
Primary OPC cultures were used as a convenient cell-based assay to characterize the proliferation and/or differentiation effects of the new IndCl analogues and to select those most suitable for more extensive studies to be done in comparison with the parental ligand, IndCl. 48 hours after plating OPCs, one of seven IndCl analogues (FIG. 1A) was added to differentiating media at a concentration of 10 nM (De Angelis et al., 2005; Saijo et al., 2011). OPCs were allowed to differentiate for 3 days in the presence of IndCl or analogues, at which point they were fixed, immunostained for OPC/OL markers, and quantified. […] The total number of cells in culture was not altered by any treatment (FIGS. 1B and 1D).

| RBA ERα (ERα) | β/α Ratio (ERβ) | RBA ERβ (ERβ) | SMILES | %MBP+/DAPI [1] | MBP+/DAPI ratio (OPC differentiation) ([1]; FIG. 10B) | number of MBP+ OLs (differentiated OLs) ([1]; 10 nM, 3 days in differentiating media, vs vehicle-treated cells) | branched OLs / complex branching cells ([1]; 10 nM, vs vehicle-treated cells) |
| --- | --- | --- | --- | --- | --- | --- | --- |
| 0.34% | 15.7 | 5.38% | Oc1ccc(-n2nc3ccc(O)cc3c2Cl)c(I)c1 [IndCl-o-I, 2-(2-iodo-4-hydroxyphenyl)-3-chloro-2H-indazol-5-ol] |  |  | significant increase; also recorded: significantly increased | increase in the percentage of branched OLs |
| 0.18% | 13.0 | 2.34% | Oc1ccc(-n2nc3ccc(O)cc3c2Cl)c(C2SCCS2)c1 [IndCl-o-Thiolane, 2-(2-(1,3-dithiolan-2-yl)-4-hydroxyphenyl)-3-chloro-2H-indazol-5-ol] |  |  |  |  |
| 0.27% | 4.0 | 1.09% | Oc1ccc(-n2nc3ccc(O)cc3c2F)c(Cl)c1 [IndF-o-Cl, 2-(2-chloro-4-hydroxyphenyl)-3-fluoro-2H-indazol-5-ol] |  |  |  |  |
| 0.27% | 2.3 | 0.61% | Oc1ccc(-n2nc3ccc(O)cc3c2F)c(I)c1 [IndF-o-I, 3-fluoro-2-(4-hydroxy-2-iodophenyl)-2H-indazol-5-ol] |  |  |  |  |
| 0.088% | 9.3 | 0.82% | Oc1cc(Cl)c(-n2cc3cc(O)ccc3n2)c(Cl)c1 [IndH-o-Cl2, 2-(2,6-dichloro-4-hydroxyphenyl)-2H-indazol-5-ol] |  |  |  |  |
| 0.03% | 2.0 | 0.06% | Oc1cc(F)c(-n2cc3cc(O)ccc3n2)c(F)c1 [IndH-o-F2, 2-(2,6-difluoro-4-hydroxyphenyl)-2H-indazol-5-ol] |  |  |  |  |
| 1.25% | 5.3 | 6.64% | Oc1ccc(-n2nc3ccc(O)cc3c2I)c(Br)c1 [IndI-o-Br, 2-(2-bromo-4-hydroxyphenyl)-3-iodo-2H-indazol-5-ol] |  |  |  |  |
| 0.47% | 10.5 | 4.93% | Oc1ccc(-n2nc3ccc(O)cc3c2I)c(Cl)c1 [IndI-o-Cl, 2-(2-chloro-4-hydroxyphenyl)-3-iodo-2H-indazol-5-ol] |  |  |  |  |
| 0.37% | 6.7 | 2.5% | Oc1ccc(-n2nc3ccc(O)cc3c2I)c(I)c1 [IndI-o-I, 2-(4-hydroxy-2-iodophenyl)-3-iodo-2H-indazol-5-ol] |  |  |  |  |
| 1.38% | 7.0 | 9.64% | Cc1cc(O)ccc1-n1nc2ccc(O)cc2c1I [IndI-o-Me, 2-(4-hydroxy-2-methylphenyl)-3-iodo-2H-indazol-5-ol] |  |  |  |  |

More lines, now with the values behind:

| SMILES | RBA ERα (ERα) | β/α Ratio (ERβ) | RBA ERβ (ERβ) | %MBP+/DAPI [1] | MBP+/DAPI ratio (OPC differentiation) ([1]; FIG. 10B) | number of MBP+ OLs (differentiated OLs) ([1]; 10 nM, 3 days in differentiating media, vs vehicle-treated cells) | branched OLs / complex branching cells ([1]; 10 nM, vs vehicle-treated cells) |
| --- | --- | --- | --- | --- | --- | --- | --- |
| OCc1c2cc(O)ccc2nn1-c1ccc(O)cc1 [Ind-CH2OH, 3-(hydroxymethyl)-2-(4-hydroxyphenyl)-2H-indazol-5-ol] | 0.04% | 35.8 | 1.43% |  |  |  |  |
| Oc1ccc(-c2c3cc(O)ccc3nn2-c2ccc(O)cc2)cc1 [Ind-Ph-p-OH, 4,4′-(5-hydroxy-2H-indazole-2,3-diyl)diphenol] | 0.08% | 7.8 | 0.63% |  |  |  |  |
| Oc1ccc(-n2nc3ccc(O)cc3c2C2SCCS2)cc1 [Ind-Thiolane, 3-(1,3-dithiolan-2-yl)-2-(4-hydroxyphenyl)-2H-indazol-5-ol] | 0.03% | 10.3 | 0.31% |  |  |  |  |
| C=CCc1c2cc(O)ccc2nn1-c1ccc(O)cc1Br [Ind-allyl-o-Br, 3-allyl-2-(2-bromo-4-hydroxyphenyl)-2H-indazol-5-ol] | 0.34% | 2.5 | 0.86% |  |  |  |  |
| C=Cc1c2cc(O)ccc2nn1-c1ccc(O)cc1Br [Ind-vinyl-o-Br, 2-(2-bromo-4-hydroxyphenyl)-3-vinyl-2H-indazol-5-ol] | 0.54% | 14.9 | 8.04% |  |  |  |  |
| Oc1ccc(-n2nc3ccc(O)cc3c2Br)c(Br)c1 [IndBr-o-Br, 3-bromo-2-(2-bromo-4-hydroxyphenyl)-2H-indazol-5-ol] | 1.40% | 4.2 | 5.84% | * |  |  |  |
| Oc1ccc(-n2nc3ccc(O)cc3c2Br)c(Cl)c1 [IndBr-o-Cl, 3-bromo-2-(2-chloro-4-hydroxyphenyl)-2H-indazol-5-ol] | 0.81% | 19.9 | 16.12% |  |  |  |  |
| Oc1ccc(-n2nc3ccc(O)cc3c2Br)c(I)c1 [IndBr-o-I, 3-bromo-2-(4-hydroxy-2-iodophenyl)-2H-indazol-5-ol] | 0.49% | 12.8 | 6.28% |  |  |  |  |
| Oc1ccc2nn(-c3ccc(O)c(F)c3)c(Cl)c2c1 [IndCl-m-F, 3-chloro-2-(3-fluoro-4-hydroxyphenyl)-2H-indazol-5-ol] | 0.14% | 75.7 | 10.5% |  |  |  |  |
| Cc1cc(-n2nc3ccc(O)cc3c2Cl)ccc1O [IndCl-m-Me, 3-chloro-2-(4-hydroxy-3-methylphenyl)-2H-indazol-5-ol] | 0.13% | 5.8 | 0.74% |  |  |  |  |
| Oc1ccc(-n2nc3ccc(O)cc3c2Cl)c(Br)c1 [IndCl-o-Br, 2-(2-bromo-4-hydroxyphenyl)-3-chloro-2H-indazol-5-ol] | 0.47% | 17.9 | 8.31% | * |  |  |  |
| Oc1ccc(-n2nc3ccc(O)cc3c2Cl)c(C(F)(F)F)c1 [IndCl-o-CF3, 3-chloro-2-(4-hydroxy-2-(trifluoromethyl)phenyl)-2H-indazol-5-ol] | 2.84% | 3.7 | 10.39% |  |  |  |  |
| OCc1cc(O)ccc1-n1nc2ccc(O)cc2c1Cl [IndCl-o-CH2OH, 3-chloro-2-(4-hydroxy-2-(hydroxymethyl)phenyl)-2H-indazol-5-ol] | 0.13% | 18.0 | 2.34% |  |  |  |  |
| N#Cc1cc(O)ccc1-n1nc2ccc(O)cc2c1Cl [IndCl-o-CN, 2-(3-chloro-5-hydroxy-2H-indazol-2-yl)-5-hydroxybenzonitrile] | 0.05% | 15.7 | 0.77% | --- |  |  |  |
| Oc1cc(Cl)c(-n2nc3ccc(O)c(Cl)c3c2Cl)c(Cl)c1 [IndCl-o-Cl2-4-Cl, 3,4-dichloro-2-(2,6-dichloro-4-hydroxyphenyl)-2H-indazol-5-ol] | 0.11% | 21.1 | 2.3% |  |  |  |  |
| Oc1ccc(-n2nc3ccc(O)c(Cl)c3c2Cl)c(Cl)c1 [IndCl-o-Cl-4-Cl, 2-(2-chloro-4-hydroxyphenyl)-3,4-dichloro-2H-indazol-5-ol] | 0.33% | 0.46 | 0.73% | * |  |  |  |
| Oc1cc(F)c(-n2nc3ccc(O)c(Cl)c3c2Cl)c(F)c1 [IndCl-o-F2-4-Cl, 3,4-dichloro-2-(2,6-difluoro-4-hydroxyphenyl)-2H-indazol-5-ol] | 0.076% | 3.6 | 0.28% |  | greatest increase |  |  |
| Oc1ccc(-n2nc3ccc(O)cc3c2Cl)c(F)c1 [IndCl-o-F, 3-chloro-2-(2-fluoro-4-hydroxyphenyl)-2H-indazol-5-ol] | 0.19% | 52.4 | 9.79% |  |  |  |  |
